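The compound was tested at five concentrations on cells cultured in 96-well plates, with a 48-hour exposure period. TGI is the concentration that stops growth completely.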
Key:
Experiment in all cases: NCI-60 cell line screen, 48 h
[1] = test system: SW-620 colon
[2] = test system: LOX IMVI melanoma
[3] = test system: OVCAR-5 ovarian
[4] = test system: OVCAR-3 ovarian
[5] = test system: MDA-MB-435
[6] = test system: TK-10 renal
[7] = test system: MALME-3M melanoma
[8] = test system: SK-OV-3 ovarian
[9] = test system: HCT-15 colon
[10] = test system: MCF7 breast
[11] = test system: M14 melanoma
[12] = test system: SN12C renal
[13] = test system: SNB-75 CNS
[14] = test system: U251 CNS
[15] = test system: SK-MEL-5 melanoma
[16] = test system: UO-31 renal
[17] = test system: HCT-116 colon
[18] = test system: HT29 colon
[19] = test system: HL-60(TB) leukemia
[20] = test system: HOP-62 NSCLC
[21] = test system: UACC-257 melanoma
[22] = test system: COLO 205 colon
[23] = test system: OVCAR-4 ovarian
[24] = test system: MDA-N
[25] = test system: MDA-MB-231 breast
[26] = test system: NCI-H226 lung
[27] = test system: RXF 393 renal
[28] = test system: IGROV1 ovarian
[29] = test system: OVCAR-8 ovarian
[30] = test system: SF-539 CNS
[31] = test system: DU-145 prostate
[32] = test system: HOP-92 NSCLC
[33] = test system: K-562 leukemia
[34] = test system: BT-549 breast
[35] = test system: T-47D breast
[36] = test system: NCI-H460 lung
[37] = test system: SF-295 CNS
[38] = test system: NCI/ADR-RES ovarian
[39] = test system: KM12 colon
[40] = test system: A549 NSCLC
[41] = test system: SF-268 CNS
[42] = test system: 786-0 renal
[43] = test system: ACHN renal
[44] = test system: UACC-62 melanoma
[45] = test system: SK-MEL-28 melanoma
[46] = test system: HS 578T breast
[47] = test system: SNB-19 CNS
[48] = test system: RPMI-8226 leukemia
[49] = test system: SK-MEL-2 melanoma
[50] = test system: EKVX NSCLC
[51] = test system: MOLT-4 leukemia
[52] = test system: PC-3 prostate
[53] = test system: A498 renal
[54] = test system: NCI-H522 lung
[55] = test system: NCI-H23 lung
[56] = test system: HCC-2998 colon
[57] = test system: CAKI-1 renal
[58] = test system: CCRF-CEM leukemia

Measured: TGI

CCOC(=O)c1nc2ccc(C(F)(F)F)cc2nc1Oc1cc(OC)c(OC)c(OC)c1
73.5 µM: [46]
96.4 µM: [15]
7.69 µM: [23]
63.7 µM: [22]
81.9 µM: [26]
68.6 µM: [13]
not listed: [54] | [55] | [56] | [57] | [58]
> 100 µM: all other assays above

C/C(=N/NC(=S)N1CCCCC1)c1ccccc1O
> 100 µM: [15] | [20] | [25] | [28] | [30] | [34] | [53]
not listed: [13] | [17]
> 31.6 µM: all other assays above

Source: PubChem BioAssay (NCI)
